According to patent US20200069775A1, “BRAIN OSTEOCALCIN RECEPTOR AND COGNITIVE DISORDERS” (The Trustees of Columbia University in the City of New York, priority 2017, published 2020):

Tests used:
[1] = system: mouse primary hindbrain neurons (MPHN); assay: Gene expression in mouse primary hindbrain neurons (MPHN); type: cell-based; settings: osteocalcin 3 ng/ml, 2 or 4 hours; WT and Gprc6a−/− primary brainstem neuronal culture
Method: For gene expression studies, RNA was isolated from primary neurons or tissue using TRIZOL® (Invitrogen). cDNA synthesis was performed following a standard protocol from Invitrogen and qPCR analyses were done using specific quantitative PCR primers from SABiosciences (http://www.sabiosciences.com/RT2PCR.php).
For primary culture of hindbrain neurons, E14.5 embryos were obtained from matings of 129-Sv WT mice. Hindbrains were dissected out and collected in ice-cold filter sterilized HBSS buffered with 10 mM HEPES until dissection was complete, at which point they were finely chopped into 2 mm cubes, dissociated by trituration with a fire-polished Pasteur pipette and spun down at 4° C. Cells were then plated onto poly-D-lysine coated coverslips or dishes in Neurobasal medium supplemented with 2% B27, 0.25 mM Glutamax, 0.25 mM L-glutamine, penicillin G (50 U/ml), and streptomycin sulphate ([…]). Cultures were fed every 3-6 days with one half replacement medium without L-glutamine.
To determine if osteocalcin acts directly on neurons to modulate neurotransmitter synthesis, several types of assays were performed. First, brainstem and midbrain explants from WT and Gprc6a^−/− mice were generated. […] Third, to further confirm that osteocalcin signals in neurons of the hindbrain, calcium flux in MPHN treated with undercarboxylated or carboxylated osteocalcin (FIG. 3F) was measured.

[2] = system: Bdnf accumulation in the hippocampus; assay: BDNF accumulation (Western blot) in hippocampus after peripheral osteocalcin; type: in vivo, mouse; settings: WT mice injected peripherally, 16 hours (FIG. 13h)
Method: FIG. 13. Exogenous osteocalcin improves anxiety and cognition in aged WT mice. (Panel a) EPMT performed in aged mice receiving plasma from aged, young WT, or young Ocn−/− mice, and aged WT mice receiving plasma from young Ocn−/− supplemented with 90 ng/g osteocalcin. Number of entries and time spent (s) in the open arms were scored. (Panel b) NOR performed in aged WT mice receiving plasma from WT mice either aged or young, or from young Ocn−/− mice or from young Ocn−/− supplemented with 90 ng/g osteocalcin. Preference index (time spent with novel object/total exploration time) was measured for each group. (Panel c) BDNF accumulation (representative Western blot, left) and quantification of band intensities (right) in hippocampi of aged WT mice receiving plasma from WT, either aged or young, or from young Ocn−/− mice. α-Tubulin is used as a loading control. (Panel d) DLT performed in 12 and 16 month-old WT mice treated with vehicle or osteocalcin. Number of entries in the lit compartment was measured. (Panel e) EPMT performed in 12 and 16 month-old WT mice treated with vehicle or osteocalcin. Time spent in the lit compartment and open arms was measured. (Panel f) MWMT performed over 10 days in 12 and 16 month-old WT mice treated with vehicle or osteocalcin. […] Preference index (time spent with novel object/total exploration time) was measured for each group. […]

[3] = system: cAMP production in hippocampal neurons; assay: cAMP accumulation in primary hippocampal neurons; type: cell-based, mouse; settings: cultured hippocampal neurons
Method: Hippocampal neurons were isolated from mouse embryos (embryonic day 16.5). After dissection, hippocampi were digested in Tryspin 0.05% and EDTA 0.02% for 15 minutes at 37° C. After 3 wash in DMEM (high glucose and sodium pyruvate) supplemented with 10% of fetal bovine serum, 100 U/mL Penicillin-Streptomycin and 1× GlutaMAX, cells were dissociated by pipetting up and down and then plated. After the culture was established, medium was changed 2 times per week with Neurobasal medium supplemented with B-27 supplement and 1× GlutaMAX. Experiments were performed on cells after 15 days of culture (DIV 15).
For Western blotting, frozen hippocampi from adult mice were lysed and homogenized in 250 µl tissue lysis buffer (25 mM Tris HCl 7.5; 100 mM NaF; 10 mM Na4P2O7; 10 mmM EDTA; 1% NP 40). Proteins were transferred to nitrocellulose membranes, and blocked with TBST-5% BSA for 1 hour. […] Western blot bands were quantified using ImageJ software. cAMP accumulation was measured in primary hippocampal neurons by using cAMP Parameter Assay Kit (R&D systems) and performed in primary hippocampal neurons (DIV15) following manufacturer instructions. For IP1 accumulation was determined in primary hippocampal neurons (DIV15) by using IP-One ELISA assay kit (Cisbio) following manufacturer instructions. […]

Substance: osteocalcin: Recombinant osteocalcin bacterially produced, cleaved from the GST subunit; completely undercarboxylated at all three sites; full-length mouse osteocalcin (YLGASVPSPDPLEPTREQCELNPACDELSDQYGLKTAYKRIYGITI)
- Tph2 expression [1]: increased more than three-fold
- decrease of GAD1 expression [1]: 65%
- Bdnf accumulation in the hippocampi [2]: increased
- cAMP production [3]: did not affect cAMP production
